Measured values reported in ChEMBL document CHEMBL4619778, “Oligopeptides as Neuropeptide Y Y4 Receptor Ligands: Identification of a High-Affinity Tetrapeptide Agonist and a Hexapeptide Antagonist” (J Med Chem, 2020).
Square brackets hold non-standard residues; d marks the D form. Peptide text beside a SMILES is read from it. ξ: configuration not given here. ξOrn = NCCCC(N)C(=O)O

What was measured:
[1] = target: T1, Neuropeptide Y receptor type 5 (Homo sapiens, UniProt Q15761); test: Displacement of [3H]propionyl-pNPY from human Y5 receptor expressed in human HEC1B cells; type: cell-based
T1 sequence (Q15761 whole entry): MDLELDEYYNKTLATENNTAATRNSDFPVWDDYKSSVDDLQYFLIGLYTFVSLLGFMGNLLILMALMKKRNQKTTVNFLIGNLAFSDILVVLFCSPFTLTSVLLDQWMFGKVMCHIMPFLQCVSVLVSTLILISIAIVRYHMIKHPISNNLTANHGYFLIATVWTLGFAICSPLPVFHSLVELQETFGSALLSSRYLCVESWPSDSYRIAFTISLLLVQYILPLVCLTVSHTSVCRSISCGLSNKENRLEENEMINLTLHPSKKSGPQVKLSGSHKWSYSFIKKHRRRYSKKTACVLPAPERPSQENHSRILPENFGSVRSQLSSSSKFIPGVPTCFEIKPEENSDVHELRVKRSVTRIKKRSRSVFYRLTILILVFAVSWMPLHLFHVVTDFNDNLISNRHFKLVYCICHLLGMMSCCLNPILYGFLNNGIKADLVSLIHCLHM

[2] = organism: Homo sapiens; test: Selectivity ratio of Ki for displacement of [3H]UR-MK299 from Y1 receptor in human SK-N-MC cells to Ki for displacement of [3H]UR-KK200 from human Y4 receptor expressed in CHO cells co-expressing Gqi5-mtAEQ; type: cell-based
[3] = target: T2, Neuropeptide Y receptor type 2 (Homo sapiens, UniProt P49146); test: Displacement of [3H]propionyl-pNPY from human Y2 receptor expressed in CHO cells measured after 2 hrs by microbeta liquid scintillation counting analysis; type: cell-based
T2 sequence (P49146 whole entry): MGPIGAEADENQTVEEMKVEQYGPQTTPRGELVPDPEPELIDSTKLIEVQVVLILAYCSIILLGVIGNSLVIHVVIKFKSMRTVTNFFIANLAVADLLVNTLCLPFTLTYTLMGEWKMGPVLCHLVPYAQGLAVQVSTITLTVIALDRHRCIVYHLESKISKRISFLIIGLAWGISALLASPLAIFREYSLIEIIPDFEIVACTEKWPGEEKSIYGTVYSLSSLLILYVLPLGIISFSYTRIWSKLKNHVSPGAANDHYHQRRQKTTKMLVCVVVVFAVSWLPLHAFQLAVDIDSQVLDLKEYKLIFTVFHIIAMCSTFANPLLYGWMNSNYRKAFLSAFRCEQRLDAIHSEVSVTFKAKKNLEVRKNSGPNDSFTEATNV

[4] = target: T3, Neuropeptide Y receptor type 4 (Homo sapiens, UniProt P50391); test: (§1) Antagonist activity at human Y4 receptor expressed in CHO cells co-expressing Gqi5-mtAEQ assessed as inhibition of hPP-induced intracellular calcium mobilization preincubated for 15 mins followed by hPP addition and measured for 43 secs in presence of coelenterazine by aequorin-reporter gene based luminescence assay; type: functional, cell-based
T3 sequence (P50391 whole entry): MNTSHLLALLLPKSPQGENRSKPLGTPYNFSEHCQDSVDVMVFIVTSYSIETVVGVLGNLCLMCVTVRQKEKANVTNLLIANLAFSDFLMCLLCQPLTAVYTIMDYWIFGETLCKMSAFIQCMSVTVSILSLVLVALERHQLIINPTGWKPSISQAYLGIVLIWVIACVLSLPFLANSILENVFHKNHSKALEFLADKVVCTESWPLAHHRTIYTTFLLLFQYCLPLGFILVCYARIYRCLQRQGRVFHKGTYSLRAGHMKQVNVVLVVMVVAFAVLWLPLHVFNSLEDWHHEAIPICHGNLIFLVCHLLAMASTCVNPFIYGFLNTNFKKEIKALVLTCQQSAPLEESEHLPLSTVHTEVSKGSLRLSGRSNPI

[5] = target: T3, Neuropeptide Y receptor type 4; test: Displacement of [3H]UR-KK200 from human Y4 receptor expressed in CHO cells co-expressing Gqi5-mtAEQ measured after 90 mins by scintillation counting analysis; type: cell-based
[6] = organism: Homo sapiens; test: Selectivity ratio of Ki for displacement of [3H]propionyl-pNPY from human Y5 receptor expressed in human HEC1B cells to Ki for displacement of [3H]UR-KK200 from human Y4 receptor expressed in CHO cells co-expressing Gqi5-mtAEQ; type: cell-based
[7] = target: T4, Neuropeptide Y receptor type 1 (Homo sapiens, UniProt P25929); test: Displacement of [3H]UR-MK299 from Y1 receptor in human SK-N-MC cells; type: cell-based
T4 sequence (P25929 whole entry): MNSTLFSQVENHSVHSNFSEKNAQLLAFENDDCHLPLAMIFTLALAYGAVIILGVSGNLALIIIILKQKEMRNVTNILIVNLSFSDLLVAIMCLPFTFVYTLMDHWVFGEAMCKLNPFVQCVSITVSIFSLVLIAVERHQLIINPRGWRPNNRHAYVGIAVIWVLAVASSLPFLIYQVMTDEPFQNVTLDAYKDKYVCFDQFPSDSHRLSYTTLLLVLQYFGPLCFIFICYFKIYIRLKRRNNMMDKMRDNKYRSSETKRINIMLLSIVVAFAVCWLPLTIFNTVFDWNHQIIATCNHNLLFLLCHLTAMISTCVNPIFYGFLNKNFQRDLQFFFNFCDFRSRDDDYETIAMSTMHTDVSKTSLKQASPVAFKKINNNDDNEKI

[8] = organism: Homo sapiens; test: Selectivity ratio of Ki for displacement of [3H]propionyl-pNPY from human Y2 receptor expressed in CHO cells to Ki for displacement of [3H]UR-KK200 from human Y4 receptor expressed in CHO cells co-expressing Gqi5-mtAEQ; type: cell-based
[9] = target: T3, Neuropeptide Y receptor type 4; test: Antagonist activity at human Y4R expressed in HEK293T cells co-expressing ARRB2 assessed as inhibition of hPP-induced beta-arrestin2 recruitment preincubated for 20 mins followed by hPP addition and measured for 40 mins by D-luciferin based luminescence assay; type: cell-based; conditions: HEK-293T
[10] = target: T3, Neuropeptide Y receptor type 4; test: Antagonist activity at human Y4R expressed in HEK293T cells co-expressing ARRB1 assessed as inhibition of hPP-induced beta-arrestin1 recruitment preincubated for 20 mins followed by hPP addition and measured for 40 mins by D-luciferin based luminescence assay; type: cell-based; conditions: HEK-293T
[11] = target: T3, Neuropeptide Y receptor type 4; test: Agonist activity at human Y4 receptor expressed in CHO cells co-expressing Gqi5-mtAEQ assessed as intracellular calcium mobilization measured for 43 secs in presence of coelenterazine by aequorin-reporter gene based luminescence assay; type: functional, cell-based
[12] = target: T3, Neuropeptide Y receptor type 4; test: Agonist activity at human Y4R expressed in HEK293T cells co-expressing ARRB2 assessed as induction of beta-arrestin2 recruitment measured for 40 mins by D-luciferin based luminescence assay; type: cell-based, HEK-293T
[13] = target: T3, Neuropeptide Y receptor type 4; test: Agonist activity at human Y4R expressed in HEK293T cells co-expressing ARRB1 assessed as induction of beta-arrestin1 recruitment measured for 40 mins by D-luciferin based luminescence assay; type: cell-based, HEK-293T
[14] = target: T3, Neuropeptide Y receptor type 4; test: Antagonist activity at human Y4 receptor expressed in CHO cells co-expressing Gqi5-mtAEQ assessed as inhibition of hPP-induced intracellular calcium mobilization by measuring rightward shifts of hPP concentration-response curves at 10 uM preincubated for 15 mins followed by hPP addition and …; type: functional, cell-based
[15] = target: T3, Neuropeptide Y receptor type 4; test: (§2) Antagonist activity at human Y4R expressed in HEK293T cells co-expressing ARRB1 assessed as inhibition of hPP-induced beta-arrestin1 recruitment at 10 uM preincubated for 20 mins followed by hPP addition and measured for 40 mins by D-luciferin based luminescence assay; type: cell-based; conditions: HEK-293T
[16] = target: T3, Neuropeptide Y receptor type 4; test: as §2, with “recruitment by measuring rightward shifts of hPP concentration-response curves” for “recruitment”, “assay relative to hPP” for “assay”; type: cell-based; conditions: HEK-293T
[17] = target: T3, Neuropeptide Y receptor type 4; test: as §1, with “mobilization at 10 uM” for “mobilization”; type: functional, cell-based

Molecule	Ki ([1]; read-out: Ki) [nM]	Ki ([1]; read-out: pKi (converted)) [nM]	Ratio Ki [2]	Ki ([3]; cho, read-out: Ki) [nM]	Ki ([3]; read-out: pKi (converted)) [nM]	pKb [4]	Ki ([5]; read-out: Ki) [nM]	Ratio Ki [6]	Ki ([7]; read-out: Ki) [nM]	Ki ([7]; read-out: pKi (converted)) [nM]	Ratio Ki [8]	pKb [9]	pKb [10]	Ki ([3]; read-out: Ki) [nM]	EC50 ([11]; read-out: EC50) [nM]	EC50 ([12]; read-out: EC50) [nM]	EC50 ([13]; read-out: EC50) [nM]	Ki ([5]; read-out: pKi (converted)) [nM]	also measured
Ac-RGYRWRY-NH2	> 3000	> 3160	> 100	> 10000	> 10000	7.57	29	> 100	> 3000	> 3160	> 340	7.01	6.96	–	–	–	–	–	–
CC(=O)N[C@@H](CCCNC(=N)N)C(=O)NC(CCCN)C(=O)N[C@@H](Cc1ccc(O)cc1)C(=O)N[C@@H](CCCNC(=N)N)C(=O)N[C@@H](Cc1c[nH]c2ccccc12)C(=O)N[C@@H](CCCNC(=N)N)C(=O)N[C@@H](Cc1ccc(O)cc1)C(N)=O (stereo partly specified) (Ac-R[ξOrn]YRWRY-NH2)	–	–	–	–	–	6.91	160	–	–	–	–	5.87	6.22	–	–	–	–	–	–
CC(C)C[C@H](NC(=O)[C@H](CCCNC(=N)N)NC(=O)[C@H](Cc1ccc(O)cc1)NC(=O)[C@H](CCCNC(=N)N)NC(=O)CCC(=O)O)C(=O)N[C@@H](CCCNC(=N)N)C(=O)N[C@@H](Cc1ccc(O)cc1)C(N)=O	> 10000	> 10000	> 75	–	> 3160	–	4	> 2500	> 300	> 316	> 750	–	–	> 3000	620	430	460	–	–
CC(C)C[C@H](NC(=O)[C@@H](N)CCCNC(=N)N)C(=O)N[C@@H](CCCNC(=N)N)C(=O)N[C@@H](Cc1ccc(O)cc1)C(N)=O	> 10000	> 10000	> 2900	> 10000	> 10000	–	3.4	> 2900	–	> 10000	> 2900	–	–	–	440	170	280	–	Ki ([7]; sk-n-mc, read-out: Ki): > 10000 nM
Ac-RYRWRY-NH2	–	–	–	–	–	7.22	97	–	–	–	–	6.85	7.02	–	–	–	–	89.1	–
H-WRLRY-NH2	> 1000	> 1000	> 590	> 10000	> 10000	–	1.7	> 590	–	> 1000	> 5900	–	–	–	250	140	160	1.62	EC50 ([12]; read-out: pEC50 (converted)): 148 nM; Ki ([7]; sk-n-mc, read-out: Ki): > 1000 nM
Ac-RGRLRY-NH2	> 3000	> 3160	> 380	> 1000	> 1000	–	7.9	> 380	> 3000	> 3160	> 130	–	–	–	1200	250	180	7.59	–
Ac-RGYRWRW-NH2	–	–	–	–	–	6.46	250	–	–	–	–	5.8	6.1	–	–	–	–	240	–
Ac-RRLRY-NH2	> 10000	> 10000	> 180	–	> 3160	–	17	> 590	> 3000	> 3160	> 180	–	–	> 3000	2500	510	600	14.1	–
CC(=O)N[C@@H](CCCNC(=N)N)C(=O)N[C@@H](Cc1ccc(O)cc1)C(=O)N[C@@H](CCCNC(=N)N)C(=O)N[C@@H](CC(C)C)C(=O)N[C@@H](CCCNC(=N)N)C(=O)N[C@@H](Cc1ccc(O)cc1)C(N)=O	> 3000	–	> 830	–	–	–	3.4 to 3.6	> 830	> 3000	–	> 830	–	–	> 3000	190	120	170	3.72	EC50 ([11]; read-out: pEC50 (converted)): 182 nM; EC50 ([12]; read-out: pEC50 (converted)): 112 nM; EC50 ([13]; read-out: pEC50 (converted)): 162 nM
CC(=O)N[C@@H](CCCNC(=N)N)C(=O)NC(CCCN)C(=O)NCC(=O)N[C@@H](Cc1c[nH]c2ccccc12)C(=O)N[C@@H](CCCNC(=N)N)C(=O)N[C@@H](CC(C)C)C(=O)N[C@@H](CCCNC(=N)N)C(=O)N[C@@H](Cc1ccc(O)cc1)C(N)=O (stereo partly specified) (Ac-R[ξOrn]GWRLRY-NH2)	> 1000	> 1000	> 230	> 1000	> 1000	–	4.3	> 230	–	> 1000	> 230	–	–	–	230	140	170	–	Ki ([7]; sk-n-mc, read-out: Ki): > 1000 nM
H-RYRWRY-NH2	> 10000	> 10000	> 110	–	> 3160	7.32	28	> 360	> 3000	> 3160	> 110	6.87	7.14	> 3000	–	–	–	26.9	fold change (FC) [14]: 2; pKb [15]: 6.63; fold change (FC) [16]: 2; pKb [17]: 7.05
